Reference: PubChem BioAssay (NCI)
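Where inhibition never reached the appropriate level, the endpoint shown equals the highest concentration tested. Otherwise, values were interpolated linearly from a five-concentration, 48-hour dose response in 96-well plates. Abbreviation: GI50, concentration required for 50% inhibition of growth. Definition used: TGI = concentration required for complete inhibition of growth.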

What was measured:
Assay in all cases: inhibition of tumour cell growth, NCI panel, 48 h; in the data active = GI50 below about 0.43 µM; inactive = the rest
786-0 renal = tested on: 786-0 renal
A549 NSCLC = tested on: A549 NSCLC
ACHN renal = tested on: ACHN renal
CAKI-1 renal = tested on: CAKI-1 renal
CCRF-CEM leukemia = tested on: CCRF-CEM leukemia
COLO 205 colon = tested on: COLO 205 colon
HL-60(TB) leukemia = tested on: HL-60(TB) leukemia
HOP-62 NSCLC = tested on: HOP-62 NSCLC
HOP-92 NSCLC = tested on: HOP-92 NSCLC
IGROV1 ovarian = tested on: IGROV1 ovarian
K-562 leukemia = tested on: K-562 leukemia
M14 melanoma = tested on: M14 melanoma
MALME-3M melanoma = tested on: MALME-3M melanoma
MCF7 breast = tested on: MCF7 breast
MDA-MB-435 = tested on: MDA-MB-435
MOLT-4 leukemia = tested on: MOLT-4 leukemia
NCI-H23 lung = tested on: NCI-H23 lung
NCI-H460 lung = tested on: NCI-H460 lung
NCI/ADR-RES ovarian = tested on: NCI/ADR-RES ovarian
OVCAR-4 ovarian = tested on: OVCAR-4 ovarian
OVCAR-5 ovarian = tested on: OVCAR-5 ovarian
RPMI-8226 leukemia = tested on: RPMI-8226 leukemia
RXF 393 renal = tested on: RXF 393 renal
SF-268 CNS = tested on: SF-268 CNS
SK-MEL-2 melanoma = tested on: SK-MEL-2 melanoma
SK-MEL-28 melanoma = tested on: SK-MEL-28 melanoma
SK-MEL-5 melanoma = tested on: SK-MEL-5 melanoma
SK-OV-3 ovarian = tested on: SK-OV-3 ovarian
SNB-75 CNS = tested on: SNB-75 CNS
SR leukemia = tested on: SR leukemia
SW-620 colon = tested on: SW-620 colon
T-47D breast = tested on: T-47D breast
U251 CNS = tested on: U251 CNS
UACC-62 melanoma = tested on: UACC-62 melanoma
BT-549 breast = tested on: BT-549 breast
DU-145 prostate = tested on: DU-145 prostate
EKVX NSCLC = tested on: EKVX NSCLC
HCC-2998 colon = tested on: HCC-2998 colon
HCT-116 colon = tested on: HCT-116 colon
HCT-15 colon = tested on: HCT-15 colon
HT29 colon = tested on: HT29 colon
KM12 colon = tested on: KM12 colon
LOX IMVI melanoma = tested on: LOX IMVI melanoma
MDA-MB-231 breast = tested on: MDA-MB-231 breast
NCI-H226 lung = tested on: NCI-H226 lung
NCI-H522 lung = tested on: NCI-H522 lung
OVCAR-3 ovarian = tested on: OVCAR-3 ovarian
OVCAR-8 ovarian = tested on: OVCAR-8 ovarian
PC-3 prostate = tested on: PC-3 prostate
SF-295 CNS = tested on: SF-295 CNS
SN12C renal = tested on: SN12C renal
SNB-19 CNS = tested on: SNB-19 CNS
TK-10 renal = tested on: TK-10 renal
UACC-257 melanoma = tested on: UACC-257 melanoma
UO-31 renal = tested on: UO-31 renal

C=CCNc1nc(C#N)c(N)s1
> 10 µM: TGI (786-0 renal) | TGI (A549 NSCLC) | TGI (ACHN renal) | TGI (CAKI-1 renal) | TGI (CCRF-CEM leukemia) | TGI (COLO 205 colon) | TGI (HL-60(TB) leukemia) | TGI (HOP-62 NSCLC) | TGI (HOP-92 NSCLC) | TGI (IGROV1 ovarian) | TGI (K-562 leukemia) | TGI (M14 melanoma) | TGI (MALME-3M melanoma) | TGI (MCF7 breast) | TGI (MDA-MB-435) | TGI (MOLT-4 leukemia) | TGI (NCI-H23 lung) | TGI (NCI-H460 lung) | TGI (NCI/ADR-RES ovarian) | TGI (OVCAR-4 ovarian) | TGI (OVCAR-5 ovarian) | TGI (RPMI-8226 leukemia) | TGI (RXF 393 renal) | TGI (SF-268 CNS) | TGI (SK-MEL-2 melanoma) | TGI (SK-MEL-28 melanoma) | TGI (SK-MEL-5 melanoma) | TGI (SK-OV-3 ovarian) | TGI (SNB-75 CNS) | TGI (SR leukemia) | TGI (SW-620 colon) | TGI (T-47D breast) | TGI (U251 CNS) | TGI (UACC-62 melanoma)

CCCCCCCCN=C(N)c1ccc(N2CCN(c3ccc(C(N)=NCCCCCCCC)cc3)CC2)cc1
4.66 µM: TGI (HL-60(TB) leukemia)
3.05 µM: TGI (SN12C renal)
6.49 µM: TGI (NCI-H23 lung)
2.45 µM: TGI (SK-MEL-5 melanoma)
13.5 µM: TGI (T-47D breast)
14.4 µM: TGI (OVCAR-5 ovarian)
8.44 µM: TGI (UACC-62 melanoma)
10.2 µM: TGI (SK-OV-3 ovarian)
13.6 µM: TGI (HT29 colon)
6.33 µM: TGI (U251 CNS)
15 µM: TGI (HOP-62 NSCLC)
8.75 µM: TGI (EKVX NSCLC)
2.26 µM: TGI (SR leukemia)
9.08 µM: TGI (A549 NSCLC)
5.44 µM: TGI (NCI-H226 lung)
19.2 µM: TGI (COLO 205 colon)
17.2 µM: TGI (SK-MEL-28 melanoma)
3.2 µM: TGI (OVCAR-3 ovarian)
8.81 µM: TGI (KM12 colon)
3.82 µM: TGI (BT-549 breast)
3.23 µM: TGI (MDA-MB-435)
2.79 µM: TGI (SF-295 CNS)
> 50 µM: TGI (HOP-92 NSCLC) | TGI (IGROV1 ovarian) | TGI (K-562 leukemia) | TGI (MDA-MB-231 breast) | TGI (NCI-H460 lung) | TGI (NCI-H522 lung) | TGI (NCI/ADR-RES ovarian) | TGI (PC-3 prostate) | TGI (SK-MEL-2 melanoma) | TGI (UO-31 renal)
7.2 µM: TGI (HCT-15 colon)
12.7 µM: TGI (ACHN renal)
inactive: GI50 (786-0 renal) 1.67 µM | GI50 (A549 NSCLC) 1.67 µM | GI50 (ACHN renal) 2.37 µM | GI50 (BT-549 breast) 1.41 µM | GI50 (CAKI-1 renal) 1.28 µM | GI50 (COLO 205 colon) 1.49 µM | GI50 (DU-145 prostate) 2.42 µM | GI50 (EKVX NSCLC) 1.55 µM | GI50 (HCC-2998 colon) 2.06 µM | GI50 (HCT-116 colon) 1.64 µM | GI50 (HCT-15 colon) 1.79 µM | GI50 (HL-60(TB) leukemia) 1.17 µM | GI50 (HOP-62 NSCLC) 7.14 µM | GI50 (HOP-92 NSCLC) 14.9 µM | GI50 (HT29 colon) 1.61 µM | GI50 (IGROV1 ovarian) 1.62 µM | GI50 (K-562 leukemia) 1.46 µM | GI50 (KM12 colon) 1.9 µM | GI50 (LOX IMVI melanoma) 1.92 µM | GI50 (M14 melanoma) 1.76 µM | GI50 (MDA-MB-231 breast) 3.37 µM | GI50 (MDA-MB-435) 1.25 µM | GI50 (MOLT-4 leukemia) 0.724 µM | GI50 (NCI-H226 lung) 1.6 µM | GI50 (NCI-H23 lung) 1.52 µM | GI50 (NCI-H460 lung) 1.63 µM | GI50 (NCI-H522 lung) 2.27 µM | GI50 (NCI/ADR-RES ovarian) > 50 µM | GI50 (OVCAR-3 ovarian) 0.931 µM | GI50 (OVCAR-4 ovarian) 2.35 µM | GI50 (OVCAR-5 ovarian) 3.27 µM | GI50 (OVCAR-8 ovarian) 1.49 µM | GI50 (PC-3 prostate) 22.7 µM | GI50 (RXF 393 renal) 1.13 µM | GI50 (SF-268 CNS) 1.85 µM | GI50 (SF-295 CNS) 1.1 µM | GI50 (SK-MEL-2 melanoma) 1.69 µM | GI50 (SK-MEL-28 melanoma) 2.74 µM | GI50 (SK-MEL-5 melanoma) 1.05 µM | GI50 (SK-OV-3 ovarian) 1.76 µM | GI50 (SN12C renal) 1.09 µM | GI50 (SNB-19 CNS) 2.16 µM | GI50 (SR leukemia) 0.97 µM | GI50 (SW-620 colon) 1.76 µM | GI50 (T-47D breast) 1.63 µM | GI50 (TK-10 renal) 1.72 µM | GI50 (U251 CNS) 1.45 µM | GI50 (UACC-257 melanoma) 4.03 µM | GI50 (UACC-62 melanoma) 1.92 µM | GI50 (UO-31 renal) 4.22 µM
9.01 µM: TGI (LOX IMVI melanoma)
6.65 µM: TGI (OVCAR-8 ovarian)
5.99 µM: TGI (HCT-116 colon)
4.49 µM: TGI (RXF 393 renal)
8.79 µM: TGI (HCC-2998 colon)
3.68 µM: TGI (CAKI-1 renal)
5.91 µM: TGI (SF-268 CNS)
16.8 µM: TGI (SW-620 colon)
13.2 µM: TGI (UACC-257 melanoma)
6.68 µM: TGI (M14 melanoma)
3.4 µM: TGI (MOLT-4 leukemia)
14.9 µM: TGI (OVCAR-4 ovarian)
5.49 µM: TGI (786-0 renal)
14.6 µM: TGI (SNB-19 CNS)
18 µM: TGI (DU-145 prostate)
8.92 µM: TGI (TK-10 renal)
